# According to patent US20230293526A1, “METHOD FOR TREATING CANCER WITH A REVERSE TRANSCRIPTASE INHIBITOR” (PrimeFour Therapeutics, Inc., priority 2020, published 2023):
# Experiments:
# Experiment in all cases: Cell proliferation CellTiterGlo Ex.2
# Format in all cases: cell-based
# OVK18 = OVK18 (Ovary), 72 h
# Experimental: (§1) A dose response relationship on cell proliferation was assessed for Compound 13 on 140 tumor cell lines. Briefly, compound treatment of cells started one day after seeding with a final DMSO concentration of 0.100, and was performed by nanodrop-dispensing using a Tecan Dispenser. 0.10% DMSO (solvent) and Staurosporine (10 μM) served as high control (10000 viability) and low control (000 viability), respectively. Compound 13 was tested at 10, 3, 1, 0.3, 0.1, 0.03, 0.01, and 0.003 μM.
# (§2) Cells were cultured in the appropriate media. For the assays, cells were seeded in white cell culture-treated flat and clear bottom multiwell plates and incubated at 37° C. overnight before compound was added. After incubation for 72 h at 37° C. at 5% or 10% CO2 dependent on the medium, cell plates were equilibrated to room temperature for one hour, CellTiterGlo reagent (Promega) was added and luminescence was measured approximately an hour later using a luminometer.
# (§3) Raw data were converted into percent cell viability relative to the high and low control, which were set to 10000 and 000, respectively.
# RPMI 8226 = conditions: Homo sapiens; RPMI 8226 (Blood), 72 h
# Experimental: as §1, §2, §3
# RL95-2 = conditions: Homo sapiens; RL95-2 (Endometrium), 72 h
# Experimental: as §1, §2, §3
# MOLT-4 = conditions: Homo sapiens; MOLT-4 (Blood), 72 h
# Experimental: as §1, §2, §3
# J82 = conditions: Homo sapiens; J82 (Bladder), 72 h
# Experimental: as §1, §2, §3
# BEN = BEN (Lung), 72 h
# Experimental: as §1, §2, §3
# SK-N-SH = conditions: Homo sapiens; SK-N-SH (Brain), 72 h
# Experimental: as §1, §2, §3
# NCI-H1048 = conditions: Homo sapiens; NCI-H1048 (Lung), 72 h
# Experimental: as §1, §2, §3
# A2058 = conditions: Homo sapiens; A2058 (Skin), 72 h
# Experimental: as §1, §2, §3
# NCI-H2286 = conditions: Homo sapiens; NCI-H2286 (Lung), 72 h
# Experimental: as §1, §2, §3
# NCI-H1703 = conditions: Homo sapiens; NCI-H1703 (Lung), 72 h
# Experimental: as §1, §2, §3
# PC3 = conditions: Homo sapiens, PC-3; PC3 (Prostate), 72 h
# Experimental: as §1, §2, §3
# SNU-16 = conditions: Homo sapiens; SNU-16 (Stomach), 72 h
# Experimental: as §1, §2, §3
# RKO = conditions: Homo sapiens; RKO (Colon), 72 h
# Experimental: as §1, §2, §3
# MCAS = MCAS (Ovary), 72 h
# Experimental: as §1, §2, §3
# PC-9 = conditions: Homo sapiens; PC-9 (Lung), 72 h
# Experimental: as §1, §2, §3
# SK-N-MC = conditions: Homo sapiens; SK-N-MC (Brain), 72 h
# Experimental: as §1, §2, §3
# NCI-H441 = conditions: Homo sapiens; NCI-H441 (Lung), 72 h
# Experimental: as §1, §2, §3
# MOLM-13 = conditions: Homo sapiens; MOLM-13 (Blood), 72 h
# Experimental: as §1, §2, §3
# A431 = conditions: Homo sapiens, A-431; A431 (Skin), 72 h
# Experimental: as §1, §2, §3
# H2228 = conditions: Homo sapiens, NCI-H2228; H2228 (Lung), 72 h
# Experimental: as §1, §2, §3
# U2OS = conditions: Homo sapiens; U2OS (Bone), 72 h
# Experimental: as §1, §2, §3
# SK-BR-3 = conditions: Homo sapiens; SK-BR-3 (Breast), 72 h
# Experimental: as §1, §2, §3
# A375 = conditions: Homo sapiens, A-375; A375 (Skin), 72 h
# Experimental: as §1, §2, §3
# Ishikawa = conditions: Homo sapiens; Ishikawa (Endometrium), 72 h
# Experimental: as §1, §2, §3
# AsPC-1 = conditions: Homo sapiens, ASPC1; AsPC-1 (Pancreas), 72 h
# Experimental: as §1, §2, §3
# A172 = conditions: Homo sapiens, A 172; A172 (Brain), 72 h
# Experimental: as §1, §2, §3
# SNU840 = conditions: SNU-840; SNU840 (Ovary), 72 h
# Experimental: as §1, §2, §3
# U87MG = conditions: Homo sapiens, U-87 MG; U87MG (Brain), 72 h
# Experimental: as §1, §2, §3
# HT-1080 = conditions: Homo sapiens; HT-1080 (Fibrosarcoma), 72 h
# Experimental: as §1, §2, §3
# LOVO = conditions: Homo sapiens; LOVO (Colon), 72 h
# Experimental: as §1, §2, §3
# HEC-1-A = conditions: Homo sapiens; HEC-1-A (Endometrium), 72 h
# Experimental: as §1, §2, §3
# NCI-H1573 = conditions: Homo sapiens; NCI-H1573 (Lung), 72 h
# Experimental: as §1, §2, §3
# Colo 205 = conditions: Homo sapiens; Colo 205 (Colon), 72 h
# Experimental: as §1, §2, §3
smiles,measurement,setting,value
C#C[C@]1(CO)O[C@@H](n2cnc3c(=O)[nH]c(N)nc32)C[C@@H]1O [compound 13],IC50,OVK18,2.21 µM
same,IC50,RPMI 8226,> 10 µM
same,IC50,RL95-2,5.38 µM
same,IC50,MOLT-4,0.51 µM
same,IC50,J82,5.73 µM
same,IC50,BEN,> 10 µM
same,IC50,SK-N-SH,6.47 µM
same,IC50,NCI-H1048,2.49 µM
same,IC50,A2058,> 10 µM
same,IC50,NCI-H2286,5.69 µM
same,IC50,NCI-H1703,9.16 µM
same,IC50,PC3,4.01 µM
same,IC50,SNU-16,1.95 µM
same,IC50,RKO,4.51 µM
same,IC50,MCAS,> 10 µM
same,IC50,PC-9,> 10 µM
same,IC50,SK-N-MC,3.19 µM
same,IC50,NCI-H441,3.64 µM
same,IC50,MOLM-13,0.46 µM
same,IC50,A431,5.06 µM
same,IC50,H2228,> 10 µM
same,IC50,U2OS,2.18 µM
same,IC50,SK-BR-3,> 10 µM
same,IC50,A375,2.37 µM
same,IC50,Ishikawa,6.07 µM
same,IC50,AsPC-1,> 10 µM
same,IC50,A172,> 10 µM
same,IC50,SNU840,4.23 µM
same,IC50,U87MG,6.39 µM
same,IC50,HT-1080,7.16 µM
same,IC50,LOVO,8.21 µM
same,IC50,HEC-1-A,> 10 µM
same,IC50,NCI-H1573,8.59 µM
same,IC50,Colo 205,1.5 µM
